Article PMC11335262 (Cellular and Molecular Life Sciences: CMLS, 2024)
Read-outs that look alike come from different tables or passages of the source.

Molecular target: α9α10E201Q (Rattus norvegicus, UniProt P43144+Q9JLB5, E201Q)
Format: cell-based

α9α10E201Q, sequence (P43144 26-479): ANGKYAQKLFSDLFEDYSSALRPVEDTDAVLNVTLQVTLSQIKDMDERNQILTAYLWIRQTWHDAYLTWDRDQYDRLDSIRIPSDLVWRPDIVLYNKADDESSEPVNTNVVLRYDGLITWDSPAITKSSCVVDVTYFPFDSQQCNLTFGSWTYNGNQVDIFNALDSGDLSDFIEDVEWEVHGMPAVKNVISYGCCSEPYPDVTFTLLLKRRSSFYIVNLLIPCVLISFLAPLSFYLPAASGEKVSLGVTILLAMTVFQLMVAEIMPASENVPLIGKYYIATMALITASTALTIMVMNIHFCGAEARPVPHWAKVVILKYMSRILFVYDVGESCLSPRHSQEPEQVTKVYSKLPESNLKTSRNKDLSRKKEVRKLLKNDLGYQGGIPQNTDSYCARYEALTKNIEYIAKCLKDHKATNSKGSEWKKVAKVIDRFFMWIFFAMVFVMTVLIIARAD
α9α10E201Q, sequence (Q9JLB5 25-447 E201Q): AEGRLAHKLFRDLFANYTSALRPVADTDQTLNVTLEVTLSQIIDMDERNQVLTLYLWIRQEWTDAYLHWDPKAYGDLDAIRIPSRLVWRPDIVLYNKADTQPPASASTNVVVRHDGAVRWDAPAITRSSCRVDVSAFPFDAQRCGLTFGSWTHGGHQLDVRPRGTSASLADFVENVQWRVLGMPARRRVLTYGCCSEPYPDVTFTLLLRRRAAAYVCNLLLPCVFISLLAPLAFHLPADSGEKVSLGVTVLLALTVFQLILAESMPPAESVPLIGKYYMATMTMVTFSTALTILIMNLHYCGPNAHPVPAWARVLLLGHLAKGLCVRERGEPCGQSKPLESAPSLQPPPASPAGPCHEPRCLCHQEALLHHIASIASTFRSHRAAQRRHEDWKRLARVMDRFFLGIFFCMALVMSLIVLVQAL

[Ca+2] [Ca^2+, Calcium]
modulation of ACh-evoked responses by extracellular Ca^2+ (in words) (100 µM ACh): not potentiated by Ca^2+
ACh response, % of response at […] Ca^2+ (3 mM Ca^2+, 100 µM ACh): 74.3 ± 11.2%
3 / 0 Ca^2+ ratio of response (+40 mV, 100 µM ACh): 0.53 ± 0.12
3 / 0 Ca^2+ ratio of response (-90 mV, 100 µM ACh): 0.18 ± 0.05
IC50 (read-out: Ca^2+ IC50, block of responses to 100 µM ACh): 900 ± 300 µM
ACh response, % of response at […] Ca^2+ (zero Ca^2+, 100 µM ACh): 201.6 ± 39.7%
